# Source: patent publication US5318776A, “Composition for preventing graying of the hair” (priority 1988, dated 1994)
# Where two headings read alike, the source gives them in different places.
# What was measured:
# [1] = Stability: residual amount of test compound after standing at 30° C. for 3 months, liquid chromatography; type: physicochemical
# Procedure: (§1) One month thereafter, regenerated hair was collected from a constant area and the rate (%) of generated grayed hair to all the number of hair collected was estimated. In addition, the aforementioned hair tonic type preparations were allowed to stand at 30° C. for 3 months and the residual amount of the test compounds therein was examined by liquid chromatography as well as the degree of change in smell was also evaluated by means of sensory test.
# as §1, with “compositions” for “hair tonic type preparations”, “by” for “by means of”, “test. […] In addition, the abbreviation P means the averaged added molar number of ethylene oxide residues.” for “test.”
# [2] = system: grayed hair (melanocytes); test: Inhibition of generation of grayed hair in stressed black mice; type: in vivo; conditions: for Rate of Grayed Hair (%): 0.1 ml twice a day, 1 month
# Procedure: It is known that stress is one of the causes of graying of the hair. […] Moreover, the stability of the composition with time was also estimated.
# as §1
# as §1, with “compositions” for “hair tonic type preparations”, “by” for “by means of”, “test. […] In addition, the abbreviation P means the averaged added molar number of ethylene oxide residues.” for “test.”
# grayed hair = test: Half-Head technique application to scalp of men having grayed hair; type: in vivo, men (40 to 60 years old)
# Procedure: Then, the effects of preventing graying of the hair and restoring grayed hair to its natural color were evaluated by comparing the conditions of the portions observed before and after the application of Samples and the results obtained were listed in the following Table VIII. […]
# Then, the effectiveness of the hair cream of the invention and that of Comp.
# [3] = Sensory test: degree of change in smell after standing at 30° C. for 3 months;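 for Stability S.E. (Sensory Evaluation): double circle means no smell deterioration on a four-grade scale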; type: physicochemical; conditions: for Stability S.E. (Sensory Evaluation) / deterioration in smell (in words): 30° C., 3 months
# Procedure: as §1
# as §1, with “compositions” for “hair tonic type preparations”, “by” for “by means of”, “test. […] In addition, the abbreviation P means the averaged added molar number of ethylene oxide residues.” for “test.”
# [4] = hair tonic, Table V, 0.05% in hair tonic, 30° C., 3 months, read-out: Stability Residue(%)
# [5] = Table V, 0.05% test compound in hair tonic, control 17.1
# [6] = Example 6, hair tonic as in Example 3
# [7] = Example 7, hair cream as in Example 5
# [8] = hair tonic, Table III, 0.1% in hair tonic, 30° C., 3 months, read-out: Stability Residue(%)
# [9] = Table III, 0.1% test compound in hair tonic, control 16.5
# [10] = Examples 3 to 5, Half-Head, men, 3 months
smiles,measurement,setting,value
CCCCOc1nc2c(N)ncnc2n1[C@@H]1O[C@@H]2COP(=O)(O)O[C@H]2[C@H]1O [8-butoxy cAMP-Na],stability (in words),"[1]; Example 6, hair tonic",stable
same,remaining at 2190 h,[1]; [4],99.9%
same,Rate of Grayed Hair (%),[2]; [5],6.0%
same,effect of preventing graying of the hair and restoring grayed hair to its natural color (in words),grayed hair; [6],the same effect of preventing graying of the hair and restoring grayed hair to its natural color as in Example 3
same,quality deterioration such as giving out of bad smell,"[3]; Example 6, hair tonic",did not cause quality deterioration such as giving out of bad smell
same,Stability S.E. (Sensory Evaluation),"[3]; Table V, 0.05% in hair tonic",.circleincircle.
Nc1ncnc2c1nc(Cl)n2[C@@H]1O[C@@H]2COP(=O)(O)O[C@H]2[C@H]1O [8-chloro cAMP-Na],stability (in words),"[1]; Example 7, hair cream",stable
same,effect of preventing graying of the hair and restoring grayed hair to its natural color (in words),grayed hair; [7],the same effect of preventing graying of the hair and restoring grayed hair to its natural color as in Example 5
same,quality deterioration such as giving out of bad smell,"[3]; Example 7, hair cream",did not cause quality deterioration such as giving out of bad smell
Nc1ncnc2c1nc(Sc1ccccc1)n2[C@@H]1O[C@@H]2COP(=O)(O)O[C@H]2[C@H]1O [8-phenylthio cAMP],remaining at 2190 h,[1]; [8],100%
same,Rate of Grayed Hair (%),[2]; [9],7.1%
same,Stability S.E. (Sensory Evaluation),"[3]; Table III, 0.1% in hair tonic",.circleincircle.
CCOc1nc2c(N)ncnc2n1[C@@H]1O[C@@H]2COP(=O)(O)O[C@H]2[C@H]1O [8-ethoxy cAMP-Na],stability (in words),"[1]; Example 6, hair tonic",stable
same,remaining at 2190 h,[1]; [4],99.8%
same,Rate of Grayed Hair (%),[2]; [5],5.3%
same,effect of preventing graying of the hair and restoring grayed hair to its natural color (in words),grayed hair; [6],the same effect of preventing graying of the hair and restoring grayed hair to its natural color as in Example 3
same,quality deterioration such as giving out of bad smell,"[3]; Example 6, hair tonic",did not cause quality deterioration such as giving out of bad smell
same,Stability S.E. (Sensory Evaluation),"[3]; Table V, 0.05% in hair tonic",.circleincircle.
"CCCC(=O)Nc1ncnc2c1ncn2[C@@H]1O[C@@H]2COP(=O)(O)O[C@H]2[C@H]1OC(=O)CCC [N^6,O^2' -dibutyryl cAMP, reference compound]",remaining at 2190 h,"[1]; hair tonic, Stability Residue(%)",86.4%
same,effect of inhibiting generation of grayed hair (in words),"[2]; Example 1, 0.1%",exhibits the grayed hair inhibitory effect
same,Rate of Grayed Hair (%),[2]; [9],9.1%
same,deterioration in smell (in words),[3]; Example 1,high deterioration in smell
CSc1nc2c(N)ncnc2n1[C@@H]1O[C@@H]2COP(=O)(O)O[C@H]2[C@H]1O [8-methylthio cAMP],remaining at 2190 h,[1]; [8],99.9%
same,Rate of Grayed Hair (%),[2]; [9],8.0%
same,Stability S.E. (Sensory Evaluation),"[3]; Table III, 0.1% in hair tonic",.circleincircle.
Nc1ncnc2c1nc(SCc1ccccc1)n2[C@@H]1O[C@@H]2COP(=O)(O)O[C@H]2[C@H]1O [8-benzylthio cAMP-Na],stability (in words),"[1]; Example 6, hair tonic",stable
same,effect of preventing graying of the hair and restoring grayed hair to its natural color (in words),grayed hair; [6],the same effect of preventing graying of the hair and restoring grayed hair to its natural color as in Example 3
same,quality deterioration such as giving out of bad smell,"[3]; Example 6, hair tonic",did not cause quality deterioration such as giving out of bad smell
"CCCC(=O)Nc1ncnc2c1ncn2[C@@H]1O[C@@H]2COP(=O)(O)O[C@H]2[C@H]1OC(=O)CCC [N^6,O^2' -dibutyryl cAMP-Na, reference compound]",Stability Residue(%),"[1]; hair tonic, 2190 h",84.5%
same,effect of inhibiting generation of grayed hair (in words),"[2]; Example 2, 0.05%",exhibits the aforementioned effect
same,Rate of Grayed Hair (%),[2]; [5],8.8%
same,deterioration in smell (in words),[3]; Example 2,substantial deterioration in smell
Nc1ncnc2c1nc(F)n2[C@@H]1O[C@@H]2COP(=O)(O)O[C@H]2[C@H]1O [8-fluoro cAMP],remaining at 2190 h,[1]; [8],99.5%
same,Rate of Grayed Hair (%),[2]; [9],7.6%
same,Stability S.E. (Sensory Evaluation),"[3]; Table III, 0.1% in hair tonic",.circleincircle.
CCn1cnc2c(ncn2[C@@H]2O[C@@H]3COP(=O)([O-])O[C@H]3[C@H]2O)c1=N.[Na+] [1-ethyl cAMP-Na],stability (in words),"[1]; Example 7, hair cream",stable
same,effect of preventing graying of the hair and restoring grayed hair to its natural color (in words),grayed hair; [7],the same effect of preventing graying of the hair and restoring grayed hair to its natural color as in Example 5
same,quality deterioration such as giving out of bad smell,"[3]; Example 7, hair cream",did not cause quality deterioration such as giving out of bad smell
CCCCCCCCn1cnc2c(ncn2[C@@H]2O[C@@H]3COP(=O)([O-])O[C@H]3[C@H]2O)c1=N.[Na+] [1-octyl cAMP-Na],stability (in words),"[1]; Example 7, hair cream",stable
same,effect of preventing graying of the hair and restoring grayed hair to its natural color (in words),grayed hair; [7],the same effect of preventing graying of the hair and restoring grayed hair to its natural color as in Example 5
same,quality deterioration such as giving out of bad smell,"[3]; Example 7, hair cream",did not cause quality deterioration such as giving out of bad smell
Cn1cnc2c(ncn2[C@@H]2O[C@@H]3COP(=O)(O)O[C@H]3[C@H]2O)c1=N [1-methyl cAMP],Stability Residue(%),"[1]; Table III, 0.1% in hair tonic, 30° C., 3 months, 131400 min",99.6%
same,Rate of Grayed Hair (%),[2]; [9],8.2%
same,Stability S.E. (Sensory Evaluation),"[3]; Table III, 0.1% in hair tonic",.circleincircle.
Nc1ncnc2c1nc(Sc1ccc(Cl)cc1)n2[C@@H]1O[C@@H]2COP(=O)(O)O[C@H]2[C@H]1O [8-4-chlorophenylthio cAMP-Na],remaining at 2190 h,[1]; [4],99.9%
same,Rate of Grayed Hair (%),[2]; [5],6.0%
same,Stability S.E. (Sensory Evaluation),"[3]; Table V, 0.05% in hair tonic",.circleincircle.
CCCCn1cnc2c(ncn2[C@@H]2O[C@@H]3COP(=O)([O-])O[C@H]3[C@H]2O)c1=N.[Na+] [1-butyl cAMP-Na],stability (in words),"[1]; Example 7, hair cream",stable
same,effect of preventing graying of the hair and restoring grayed hair to its natural color (in words),grayed hair; [7],the same effect of preventing graying of the hair and restoring grayed hair to its natural color as in Example 5
same,quality deterioration such as giving out of bad smell,"[3]; Example 7, hair cream",did not cause quality deterioration such as giving out of bad smell
Nc1ncnc2c1nc(SCc1ccccc1)n2[C@@H]1O[C@@H]2COP(=O)(O)O[C@H]2[C@H]1O [8-benzylthio cAMP],remaining at 2190 h,[1]; [8],100%
same,Rate of Grayed Hair (%),[2]; [9],7.2%
same,Stability S.E. (Sensory Evaluation),"[3]; Table III, 0.1% in hair tonic",.circleincircle.
CNc1nc2c(N)ncnc2n1[C@@H]1O[C@@H]2COP(=O)(O)O[C@H]2[C@H]1O [8-methylamino cAMP-Na],stability (in words),"[1]; Example 7, hair cream",stable
same,effect of preventing graying of the hair and restoring grayed hair to its natural color (in words),grayed hair; [7],the same effect of preventing graying of the hair and restoring grayed hair to its natural color as in Example 5
same,quality deterioration such as giving out of bad smell,"[3]; Example 7, hair cream",did not cause quality deterioration such as giving out of bad smell
"O=P1(O)OC[C@H]2O[C@@H](n3cnc4c3ncn3ccnc43)[C@H](O)[C@@H]2O1 [1,N^6 -etheno cAMP]",remaining at 2190 h,[1]; [8],99.8%
same,Rate of Grayed Hair (%),[2]; [9],7.5%
same,Stability S.E. (Sensory Evaluation),"[3]; Table III, 0.1% in hair tonic",.circleincircle.
CCN(CC)CC.Cn1cnc2c(ncn2[C@@H]2O[C@@H]3COP(=O)(O)O[C@H]3[C@H]2O)c1=N [1-methyl cAMP-triethylammonium],effect of preventing graying of the hair and restoring grayed hair to its natural color (in words),grayed hair; [10],remarkable effects of preventing graying of the hair and restoring grayed hair to its natural color
"O=P1(O)OC[C@H]2O[C@@H](n3cnc4c3ncn3ccnc43)[C@H](O)[C@@H]2O1 [1,N^6 -etheno cAMP-K]",effect of preventing graying of the hair and restoring grayed hair to its natural color (in words),grayed hair; [10],remarkable effects of preventing graying of the hair and restoring grayed hair to its natural color
COc1nc2c(N)ncnc2n1[C@@H]1O[C@@H]2COP(=O)(O)O[C@H]2[C@H]1O [8-methoxy cAMP],remaining at 2190 h,[1]; [8],99.7%
same,Rate of Grayed Hair (%),[2]; [9],7.8%
same,Stability S.E. (Sensory Evaluation),"[3]; Table III, 0.1% in hair tonic",.circleincircle.
CSc1nc2c(N)ncnc2n1[C@@H]1O[C@@H]2COP(=O)(O)O[C@H]2[C@H]1O [8-methylthio cAMP-Na],stability (in words),"[1]; Example 7, hair cream",stable
same,effect of preventing graying of the hair and restoring grayed hair to its natural color (in words),grayed hair; [7],the same effect of preventing graying of the hair and restoring grayed hair to its natural color as in Example 5
same,quality deterioration such as giving out of bad smell,"[3]; Example 7, hair cream",did not cause quality deterioration such as giving out of bad smell
